Assay results reported in patent publication US5612352A, “Heterocyclic compounds” (Zeneca Limited, priority 1992, dated 1997).

Tests used:
[1] = molecular target: T1, Squalene Synthase (Rattus norvegicus, UniProt Q02769); assay: Inhibition of Squalene Synthase (formation of squalene from tritiated farnesyl pyrophosphate, rat liver microsomal protein); type: biochemical; conditions: rat liver microsomes, 20 μM 1-[3H]-farnesyl pyrophosphate, 37° C., 15 minutes; read-out: IC50 (concentration which results in a 50% inhibition of squalene production)
T1 construct: from tissue; host or cells: rat liver microsomes
T1 sequence (Q02769 1-416): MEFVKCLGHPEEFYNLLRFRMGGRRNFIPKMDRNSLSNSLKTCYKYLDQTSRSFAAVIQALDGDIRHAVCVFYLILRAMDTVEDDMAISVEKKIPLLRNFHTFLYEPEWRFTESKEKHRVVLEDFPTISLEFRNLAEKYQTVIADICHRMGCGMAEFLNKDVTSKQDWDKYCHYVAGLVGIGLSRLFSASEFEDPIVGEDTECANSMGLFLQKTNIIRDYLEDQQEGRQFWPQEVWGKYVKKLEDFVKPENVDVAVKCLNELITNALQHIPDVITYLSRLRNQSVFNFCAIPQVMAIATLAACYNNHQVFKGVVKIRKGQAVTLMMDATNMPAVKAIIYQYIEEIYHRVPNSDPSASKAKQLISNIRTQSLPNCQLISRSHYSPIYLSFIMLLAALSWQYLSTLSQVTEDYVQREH
Method: (a) Inhibition of Squalene Synthase
In this test, the ability of a compound to prevent the . formation of squalene from a radioactive substrate (tritiated farnesyl pyrophosphate) is assessed.
The test compound is incubated at a concentration of 25 micromolar in 200 μl of a buffered solution containing potassium phosphate (50 mM), MgCl2 (4.95 mM), KF (9.9 mM), NADPH (0.9 mM) and rat liver microsomal protein (20 μg). Rat liver microsomes are prepared by the method described in published European Patent Application No. 324,421 and stored in liquid nitrogen prior to assay. Assay vials are kept at 37° C. throughout the incubation.
The reaction is started with the addition of the substrate (1-[^3 H]-farnesyl pyrophosphate), final concentration 20 μM, and stopped after 15 minutes reaction time with the addition of 50 μl of 4% KOH. The reaction products are separated from unreacted substrate after application to a C-18 octadecyl 1ccBond column (Analytichem Int product No. 617101). An aqueous fraction is eluted with 250 μl of 0.1M KOH. Squalene is then eluted with 1.0 ml 10% ethylacetate in hexane and radioactivity determined. The difference in radioactivity in the presence and absence of the test compound is used to determine the level of inhibition. […] The IC50 can then be determined from a plot of percentage inhibition against concentration of test compound.

[2] = test system: de novo hepatic cholesterol synthesis; assay: Acute Rat Cholesterol Synthesis Assay (de novo hepatic cholesterol synthesis from exogenously administered 14C-acetate); type: in vivo; conditions: female rats, oral gavage, ip or iv dosing (route not given), [2-14C]-acetate ip 1 hour after dose, blood after a further hour
Method: (b) Acute Rat Cholesterol Synthesis Assay
This is an acute in vivo test in the rat to measure de novo hepatic cholesterol synthesis from exogenously administered ^14 C-acetate.
Female rats (35-55 g) are housed in reverse lighting conditions (red light from 0200h-1400h) for a period of about 2 weeks prior to test. Animals are allowed free access to chow and drinking water throughout this period. At test, animals should weigh 125-150 g.
Test compounds may be administered by oral gavage, dissolved or suspended in 0.5% polysorbate, or by ip or iv dosing. Control animals receive vehicle alone. After 1 hour the rats are injected ip with 25 μCi [2-^14 C]-acetate (NEN DUPONT. specific activity, 45-60 mCi/mmol NEC-085H, or AMERSHAM specific activity, 50-60 mCi/mmol CFA 14) in a volume of 0.25 ml saline (100 μCi/ml). After a further hour, rats are terminally anaesthetised with halothane and a blood sample obtained from the abdominal vena cava.
1 ml of plasma is lyophilised and then saponified in 2 ml ethanolic KOH (1 part 33% KOH, 9 parts ethanol) at 75° C. for 2 hours. After addition of an equal quantity of water, non-saponifiable lipids are extracted with two 5 ml volumes of hexane. The hexane extracts are evaporated to dryness and the residues dissolved in ethanol to determine cholesterol specific radioactivity. ED50 values can be determined in the standard way.

SMILES	IC50 [1]	ED50 [2]
c1ccc(-c2ccc(SC3CN4CCC3CC4)cc2)cc1 (stereo not drawn) [Example 10, 3-(4-biphenylthio)quinuclidine]	21 nM	46 mg/kg
OC1C2CCN(CC2)C1Cc1ccc(-c2ccccc2)cc1 (stereo not drawn) [Example 2, 2-(4-biphenylmethyl)-3-quinuclidinol]	120 nM	
